{
  "source": "PubChem BioAssay (NCI)",
  "test_in_all_cases": "growth of human tumour cells (NCI), 48 h",
  "key": {"MCF7 breast": {"system": "MCF7 breast"}, "SK-MEL-28 melanoma": {"system": "SK-MEL-28 melanoma"}, "OVCAR-5 ovarian": {"system": "OVCAR-5 ovarian"}, "MOLT-4 leukemia": {"system": "MOLT-4 leukemia"}, "EKVX NSCLC": {"system": "EKVX NSCLC"}, "PC-3 prostate": {"system": "PC-3 prostate"}, "SR leukemia": {"system": "SR leukemia"}, "SW-620 colon": {"system": "SW-620 colon"}, "SF-268 CNS": {"system": "SF-268 CNS"}, "IGROV1 ovarian": {"system": "IGROV1 ovarian"}, "HL-60(TB) leukemia": {"system": "HL-60(TB) leukemia"}, "OVCAR-8 ovarian": {"system": "OVCAR-8 ovarian"}, "TK-10 renal": {"system": "TK-10 renal"}, "K-562 leukemia": {"system": "K-562 leukemia"}, "HCT-116 colon": {"system": "HCT-116 colon"}, "SF-539 CNS": {"system": "SF-539 CNS"}, "HS 578T breast": {"system": "HS 578T breast"}, "MALME-3M melanoma": {"system": "MALME-3M melanoma"}, "OVCAR-4 ovarian": {"system": "OVCAR-4 ovarian"}, "A549 NSCLC": {"system": "A549 NSCLC"}, "SNB-75 CNS": {"system": "SNB-75 CNS"}, "BT-549 breast": {"system": "BT-549 breast"}, "T-47D breast": {"system": "T-47D breast"}, "UO-31 renal": {"system": "UO-31 renal"}, "UACC-62 melanoma": {"system": "UACC-62 melanoma"}, "KM12 colon": {"system": "KM12 colon"}, "RPMI-8226 leukemia": {"system": "RPMI-8226 leukemia"}, "COLO 205 colon": {"system": "COLO 205 colon"}, "CAKI-1 renal": {"system": "CAKI-1 renal"}, "MDA-MB-435": {"system": "MDA-MB-435"}, "SK-MEL-2 melanoma": {"system": "SK-MEL-2 melanoma"}, "RXF 393 renal": {"system": "RXF 393 renal"}, "DU-145 prostate": {"system": "DU-145 prostate"}, "NCI-H460 lung": {"system": "NCI-H460 lung"}, "SF-295 CNS": {"system": "SF-295 CNS"}, "A498 renal": {"system": "A498 renal"}, "CCRF-CEM leukemia": {"system": "CCRF-CEM leukemia"}, "MDA-MB-231 breast": {"system": "MDA-MB-231 breast"}, "SNB-19 CNS": {"system": "SNB-19 CNS"}, "M14 melanoma": {"system": "M14 melanoma"}, "OVCAR-3 ovarian": {"system": "OVCAR-3 ovarian"}, "NCI-H522 lung": {"system": "NCI-H522 lung"}, "HT29 colon": {"system": "HT29 colon"}, "786-0 renal": {"system": "786-0 renal"}, "SK-OV-3 ovarian": {"system": "SK-OV-3 ovarian"}, "HCT-15 colon": {"system": "HCT-15 colon"}, "HCC-2998 colon": {"system": "HCC-2998 colon"}, "SN12C renal": {"system": "SN12C renal"}, "UACC-257 melanoma": {"system": "UACC-257 melanoma"}, "U251 CNS": {"system": "U251 CNS"}, "NCI-H23 lung": {"system": "NCI-H23 lung"}, "NCI/ADR-RES ovarian": {"system": "NCI/ADR-RES ovarian"}, "NCI-H226 lung": {"system": "NCI-H226 lung"}, "ACHN renal": {"system": "ACHN renal"}, "HOP-92 NSCLC": {"system": "HOP-92 NSCLC"}},
  "note": "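Cells were grown in 96-well plates and exposed to each compound for 48 hours at five concentrations; endpoints were interpolated linearly between bracketing concentrations, or set to the highest concentration if not reached. TGI is the concentration that stops growth completely.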",
  "data": [
    {"smiles": "COc1ccc(C2c3c(-c4ccccc4)nn(-c4ccccc4)c3Oc3ncn(N)c(=N)c32)cc1OC", "note": "(stereo not given)", "values": [
      {"measurement": "TGI", "setting": "MCF7 breast", "value": 3.26, "unit": "µM"},
      {"measurement": "TGI", "setting": "SK-MEL-28 melanoma", "value": 4.29, "unit": "µM"},
      {"measurement": "TGI", "setting": "OVCAR-5 ovarian", "value": 13.5, "unit": "µM"},
      {"measurement": "TGI", "setting": "MOLT-4 leukemia", "value": "> 34.4", "unit": "µM"},
      {"measurement": "TGI", "setting": "EKVX NSCLC", "value": 4.13, "unit": "µM"},
      {"measurement": "TGI", "setting": "PC-3 prostate", "value": 4.08, "unit": "µM"},
      {"measurement": "TGI", "setting": "SR leukemia", "value": "> 26.6", "unit": "µM"},
      {"measurement": "TGI", "setting": "SW-620 colon", "value": "> 25", "unit": "µM"},
      {"measurement": "TGI", "setting": "SF-268 CNS", "value": 10.4, "unit": "µM"},
      {"measurement": "TGI", "setting": "IGROV1 ovarian", "value": 3.2, "unit": "µM"},
      {"measurement": "TGI", "setting": "HL-60(TB) leukemia", "value": "> 100", "unit": "µM"},
      {"measurement": "TGI", "setting": "OVCAR-8 ovarian", "value": 5.89, "unit": "µM"},
      {"measurement": "TGI", "setting": "TK-10 renal", "value": 4.24, "unit": "µM"},
      {"measurement": "TGI", "setting": "K-562 leukemia", "value": "> 100", "unit": "µM"},
      {"measurement": "TGI", "setting": "HCT-116 colon", "value": 3.24, "unit": "µM"},
      {"measurement": "TGI", "setting": "SF-539 CNS", "value": 2.6, "unit": "µM"},
      {"measurement": "TGI", "setting": "HS 578T breast", "value": 4.37, "unit": "µM"},
      {"measurement": "TGI", "setting": "MALME-3M melanoma", "value": 3.24, "unit": "µM"},
      {"measurement": "TGI", "setting": "OVCAR-4 ovarian", "value": 7.33, "unit": "µM"},
      {"measurement": "TGI", "setting": "A549 NSCLC", "value": 4.81, "unit": "µM"},
      {"measurement": "TGI", "setting": "SNB-75 CNS", "value": 3.92, "unit": "µM"},
      {"measurement": "TGI", "setting": "BT-549 breast", "value": 15, "unit": "µM"},
      {"measurement": "TGI", "setting": "T-47D breast", "value": 4.48, "unit": "µM"},
      {"measurement": "TGI", "setting": "UO-31 renal", "value": 3.84, "unit": "µM"},
      {"measurement": "TGI", "setting": "UACC-62 melanoma", "value": 3.72, "unit": "µM"},
      {"measurement": "TGI", "setting": "KM12 colon", "value": 3.33, "unit": "µM"},
      {"measurement": "TGI", "setting": "RPMI-8226 leukemia", "value": "> 25.1", "unit": "µM"},
      {"measurement": "TGI", "setting": "COLO 205 colon", "value": 3.53, "unit": "µM"},
      {"measurement": "TGI", "setting": "CAKI-1 renal", "value": 4.15, "unit": "µM"},
      {"measurement": "TGI", "setting": "MDA-MB-435", "value": 4.2, "unit": "µM"},
      {"measurement": "TGI", "setting": "SK-MEL-2 melanoma", "value": 3.51, "unit": "µM"},
      {"measurement": "TGI", "setting": "RXF 393 renal", "value": 4.53, "unit": "µM"},
      {"measurement": "TGI", "setting": "DU-145 prostate", "value": 8.78, "unit": "µM"},
      {"measurement": "TGI", "setting": "NCI-H460 lung", "value": 3.27, "unit": "µM"},
      {"measurement": "TGI", "setting": "SF-295 CNS", "value": 4.34, "unit": "µM"},
      {"measurement": "TGI", "setting": "A498 renal", "value": 26, "unit": "µM"},
      {"measurement": "TGI", "setting": "CCRF-CEM leukemia", "value": "> 100", "unit": "µM"},
      {"measurement": "TGI", "setting": "MDA-MB-231 breast", "value": 3.8, "unit": "µM"},
      {"measurement": "TGI", "setting": "SNB-19 CNS", "value": 19.9, "unit": "µM"},
      {"measurement": "TGI", "setting": "M14 melanoma", "value": 4.17, "unit": "µM"},
      {"measurement": "TGI", "setting": "OVCAR-3 ovarian", "value": 2.95, "unit": "µM"},
      {"measurement": "TGI", "setting": "NCI-H522 lung", "value": 4.15, "unit": "µM"},
      {"measurement": "TGI", "setting": "HT29 colon", "value": 4.32, "unit": "µM"},
      {"measurement": "TGI", "setting": "786-0 renal", "value": 3, "unit": "µM"},
      {"measurement": "TGI", "setting": "SK-OV-3 ovarian", "value": 21.6, "unit": "µM"},
      {"measurement": "TGI", "setting": "HCT-15 colon", "value": 4.06, "unit": "µM"},
      {"measurement": "TGI", "setting": "HCC-2998 colon", "value": 2.76, "unit": "µM"},
      {"measurement": "TGI", "setting": "SN12C renal", "value": 8.45, "unit": "µM"},
      {"measurement": "TGI", "setting": "UACC-257 melanoma", "value": 3.82, "unit": "µM"},
      {"measurement": "TGI", "setting": "U251 CNS", "value": "> 100", "unit": "µM"},
      {"measurement": "TGI", "setting": "NCI-H23 lung", "value": 6.66, "unit": "µM"},
      {"measurement": "TGI", "setting": "NCI/ADR-RES ovarian", "value": 6.66, "unit": "µM"},
      {"measurement": "TGI", "setting": "NCI-H226 lung", "value": 7.44, "unit": "µM"},
      {"measurement": "TGI", "setting": "ACHN renal", "value": 3.69, "unit": "µM"},
      {"measurement": "TGI", "setting": "HOP-92 NSCLC", "value": 11, "unit": "µM"}
    ]}
  ]
}
